Results: patent US5866617A, “Formulations and methods of use 2,2'-dithio-bis-esthane sulfonate” (BioNumerik Pharmaceuticals, Inc., priority 1997, dated 1999)

How the values were obtained:
Fischer rats [1] = assay: Protection against cisplatin induced nephrotoxicity in Fischer rats (day 5 serum creatinine and BUN); type: in vivo
Method: FIG. 1. Serum Creatinine Values on Day 5 Post Treatment with i.v. Cisplatin (6 mg/kg) With or Without Increasing Doses of i.v. 2,2'-Dithio-Bis-Ethane Sulfonate (BNP7787).
FIG. 2. Serum BUN (Blood Urea Nitrogen) Values on Day 5 Post Treatment with i.v. Cisplatin (6 mg/kg) With or Without Increasing Doses of i.v. 2,2'-Dithio-Bis-Ethane Sulfonate (BNP7787).
(§1) The data from these studies are shown below in FIGS. 1 and 2. Under Good Laboratory Practice (GLP) conditions, Fischer rats (10 rats per treatment group) were treated with or without escalating doses of BNP7787 (up to 1000 mg/kg) administered by i.v. injection with a nephrotoxic dose of cisplatin (6 mg/kg). Serum BUN (FIG. 2) and Creatinine (FIG. 1) values were measured on day 5 and the animals were weighed daily. […] The mean day 5 WBC levels of rats treated with higher doses of 2,2'-dithio-bis-ethane sulfonate, namely the 333 mg/kg and 1,000 mg/kg treatment groups, are approximately 6,800 and 6,200, respectively. These mean WBC values are within 15% of the WBC values for untreated controls. The day 5 mean WBC counts for the cisplatin only and low dose (37 mg/kg) 2,2'-dithio-bis-ethane sulfonate treatment groups are approximately 4,800 and 4,500, respectively and represent a 32% to 36% reduction in the day 5 mean WBC from the untreated control group. The Fischer rat model is highly correlated with cisplatin induced nephrotoxicity in humans and is thus an excellent animal model to support the utility of 2,2'-dithio-bis-ethane sulfonate to protect against cisplatin induced nephrotoxicity in humans.

Fischer rats [2] = assay: Protection against cisplatin induced myelosuppression in Fischer rats (day 5 WBC); type: in vivo; conditions: for deviation of mean WBC from untreated controls: day 5
Method: FIG. 3. Total WBC Values on Day 5 Post Treatment with i.v. Cisplatin (6 mg/kg) With or Without Increasing Doses of i.v. 2,2'-Dithio-Bis-Ethane Sulfonate (BNP7787).
as §1

WARD colon cancer = assay: Antitumor activity in Fischer rats bearing subcutaneous WARD colon cancer; type: in vivo
Method: Antitumor Response of Tumor Bearing Fischer Rats Treated with Parenteral Cisplatin (6 mg/kg or 9 mg/kg) and 2,2'-Dithio-Bis-Ethane Sulfonate (BNP7787 @ 1000 mg/kg).

[3] = Body weight change in tumor bearing Fischer rats
Method: FIG. 4. Weight Change in Tumor Bearing Fischer Rats Treated with Parenteral Cisplatin (6 mg/kg or 9 mg/kg) and 2,2'-Dithio-Bis-Ethane Sulfonate (BNP7787 @ 1,000 mg/kg).
The antitumor activity and toxicity, as measured by weight changes estimated by changes in tumor volumes and animal weights, respectively, of escalating doses of parenterally (intravenously) administered cisplatin (6 mg/kg and 9 mg/kg) with or without substantially contemporaneously intravenously administered BNP7787 (1000 mg/kg) was investigated in Fischer rats bearing subcutaneous established (~3.0 g) WARD colon cancer.

[4] = Stability of 2,2'-dithio-bis-ethane sulfonate in acidic and basic aqueous media (proton NMR); type: physicochemical
Method: The stability of 2,2'-dithio-bis-ethane sulfonate at room temperature was determined at pH ranges of 1.5 to 9.0.
The stability of 2,2'-dithio-bis-ethane sulfonate in acidic and basic aqueous media can be studied as described in this example. In a typical experiment, 50 mg of 2,2'-dithio-bis-ethane sulfonate (as produced by using the above described method) was dissolved in one ml of water and the pH of the solution adjusted to 1.5, 2.0, 3.0, 4.0, 5.0 and 6.0 by adding 1N hydrochloric acid in water or the pH adjusted to 8.0, 9.0, 10.0 or 11.0 by adding 1N sodium hydroxide in water. The reaction mixture was then stirred for 24 hours at room temperature, the water was removed at reduced pressure, dissolved in spectral grade D2 O, and the proton NMR spectrum was recorded.
The stability of 2,2'-dithio-bis-ethane sulfonate at pH 1.5 is further studied by heating the reaction mixture to 100 degrees Celsius for 10 minutes.

[5] = Solubility in sterile water and 0.9% sodium chloride solution, pH 7.15 (tyndall effect); type: physicochemical; conditions: water and 0.9% nacl, read-out: concentrations at which soluble
Method: 1 ml of 0.9% sodium chloride solution was then distributed in each of a second set of six sterilized 10 ml vials. The 0.9% sodium chloride solution was obtained by dissolving 9 mg of USP grade sodium chloride in sterile HPLC grade water using an agitator.

physchem = conditions: water
Method: In this example, 10 grams of the disodium salt of 2,2'-dithio-bis-ethane sulfonate was dissolved in 50 ml of sterile HPLC grade water and the pH of the solution was readjusted to a pH of 7.0 using 1N hydrochloric acid. The resulting solution was then passed through a 0.2 micron syringe filter into an autoclaved round bottom flask (250 ml). This sterile solution was then freeze dried (lyophilized) to a white crystalline powder. The lyophilized powder was then used for the following solubility studies.
1 ml of sterile HPLC grade water was distributed in each of ten sterilized 10 ml vials. […] Each vial was first observed at room temperature for a period of approximately 15 minutes, and then heated to a temperature of 37° C. for a period of at least 15 minutes.

[6] = rat, in vivo, iv, 180 min; cited from earlier work
[7] = human, in vivo, cited from earlier work
[8] = in vivo; cited from earlier work
rats = conditions: single i.p. dose of 3 mg cisplatin/kg, cited from earlier work
cancer patients = conditions: cited from earlier work
[9] = BNP7787 37 mg/kg with cisplatin 6 mg/kg
[10] = BNP7787 333 mg/kg with cisplatin 6 mg/kg
[11] = BNP7787 1,000 mg/kg with cisplatin 6 mg/kg
[12] = BNP7787 1000 mg/kg i.v. with cisplatin 6 mg/kg and 9 mg/kg

O=S(=O)([O-])CCSSCCS(=O)(=O)[O-].[Na+].[Na+]
nephrotoxicity (plasma BUN and creatinine levels and histopathology) relative to cisplatin only (Fischer rats [1]; BNP7787 37 mg/kg with cisplatin 6 mg/kg i.v.): slight increase in nephrotoxicity
renal protection (day 5 creatinine and BUN) (Fischer rats [1]; BNP7787 333 mg/kg i.v. with cisplatin 6 mg/kg i.v.): 100%
renal protection (day 5 creatinine and BUN) (Fischer rats [1]; BNP7787 1000 mg/kg i.v. with cisplatin 6 mg/kg i.v.): 100%
dose-response effect in renal protection (Fischer rats [1]; escalating i.v. doses up to 1000 mg/kg with cisplatin 6 mg/kg): clear dose-response effect
mean day 5 WBC (Fischer rats [2]; [9]): ~4,500
reduction in day 5 mean WBC from the untreated control group (Fischer rats [2]; [9]): 36%
mean day 5 WBC (Fischer rats [2]; [10]): approximately 6,800
deviation of mean WBC from untreated controls (Fischer rats [2]; [10]): ≤ 15%
mean day 5 WBC (Fischer rats [2]; [11]): ~6,200
deviation of mean WBC from untreated controls (Fischer rats [2]; [11]): ≤ 15%
protective effect against cisplatin induced myelosuppression (WBC) (Fischer rats [2]; escalating BNP7787 doses with cisplatin 6 mg/kg): dose-dependent protective effect
potentiation of cisplatin antitumor activity (WARD colon cancer; BNP7787 1000 mg/kg i.v. with cisplatin 6 mg/kg or 9 mg/kg): potentiation of cisplatin antitumor activity
intrinsic antitumor activity (WARD colon cancer; BNP7787 without cisplatin): lacks intrinsic antitumor activity
median tumor weight at maximum reduction (from 3,000 mg) (WARD colon cancer; cisplatin 6 mg/kg immediately followed by BNP7787 1,000 mg/kg i.v.): less than 300 mg
median tumor weight at maximum reduction (from 3,000 mg) (WARD colon cancer; cisplatin 9 mg/kg immediately followed by BNP7787 1,000 mg/kg i.v.): < 100 mg
effect on antitumor activity of cisplatin (abrogation) (WARD colon cancer; substantially contemporaneous administration with cisplatin): does not abrogate the antitumor activity of cisplatin
mean weights compared with all other treatment groups [3, 12]: greater mean weights than all other treatment groups
protection against renal damage as measured by weight loss [3, 12]: clearly protective against renal damage
change in proton spectrum on heating ([4]; pH 1.5, 100 degrees Celsius, 10 minutes): No change in the proton spectrum
pH range in which stable ([4]; room temperature, 24 hours, listed as 2,2'-dithio-bis-ethane sulfonate): 1.0-11.0
solubility [5]: 100 to 320 mg/mL
solubility (physchem): 10.5 to 102 mg/mL

O=S(=O)([O-])CCS.[Na+]
administered dose recovered in the urine [6]: over 80%
dose appearing as thiol groups in the urine ([7]; iv, 20 mg/kg): about 48%
dose excreted in the urine as reactive thiol groups ([7]; po): approximately 52%
minimum concentration presumed to still be protective [7]: 100 µg/mL
administered mesna dose found in the urine in the form of mesna (reactive thiol) [8]: approximately 45%
protection of kidneys from renal damage (rats; low doses of mesna): only partially protected
prevention of renal damage (rats; per os mesna): complete prevention of renal damage

N.N.[Cl][Pt][Cl] [cisplatin, cis-diammine dichloro platinum, reference compound]
mean day 5 WBC (Fischer rats [2]; cisplatin only 6 mg/kg): approximately 4,800
reduction in day 5 mean WBC from the untreated control group (Fischer rats [2]; cisplatin only 6 mg/kg): 32%
median tumor weight at maximum reduction (from 3,000 mg) (WARD colon cancer; cisplatin only 6 mg/kg i.v.): 700 mg
median tumor weight at maximum reduction (from 3,000 mg) (WARD colon cancer; cisplatin only 9 mg/kg i.v.): 500 mg
loss of body weight ([3]; cisplatin alone, 6 mg/kg and 9 mg/kg, at 6 days): up to 8%

O=S(O)(O)=S [thiosulfates, sodium thiosulfate]
increase of cisplatin dose per meter square that could be administered intraperitoneally (cancer patients; thiosulfates by intravenous infusion): more than two fold
renal toxicity of intraperitoneal cisplatin (cancer patients; thiosulfates by the intravenous route): renal toxicity could be prevented
